In general, pIC50 refers to the negative decadic logarithm of the IC50, by convention in mol/L. Broadly, the melting point is the temperature, or range, at which the solid turns liquid.

pIC50: −log10 of the molar value. Bounds are passed on as bounds.

Experimental findings from patent US8168642B2, “Dihydropyrimidine compounds and their uses in preparation of medicaments for treating and preventing antiviral diseases” (Beijing Molecule Science and Technology Co., Ltd., priority 2006, dated 2012) are described below.

For data set [1], the system named is HepG 2.2.15 cells. Kind of data set: Cytotoxicity in HepG 2.2.15 cells (cell morphology under microscope after 8 days, Reed&Muench). The format is cell-based. The following applies: pathological change of cells after 8 days. As to the method: (§1) The antiviral test was carried out in a 96-cell microtiter plate. The first column of the plate only contained a culture medium and HepG 2.2.15 cells, as a blank control.
(§2) First, a stock solution ([…]) of a test compound was dissolved in DMSO, and further diluted with a culture medium for growth of HepG 2.2.15 cells. Usually, the compound of the present invention was transferred by suction at a test concentration of 100 μg/ml (the first test concentration) to each cell of the second column of the microtiter plate, and then diluted with the culture medium for growth plus 2% fetal bovine serum (25 μL), by 2 times once, up to 2^10 times at the maximum.
(§3) Then, 225 μL of a suspension of HepG 2.2.15 cells in the culture medium for growth plus 2% fetal bovine serum (5×10^4 cells/ml) was added to each cell of the 96-cell microtiter plate.
(§4) The test mixture was incubated under the conditions of 37° C., 5% CO2 for 4 days. Then, the supernatant was removed by suction, and to each cell 225 μL of a new-prepared culture medium for growth was added. Again, the compound of the present invention was added with a solution of 25 μL. The obtained mixture was further incubated for 4 days.
Prior to collection of the supernatant for determination of the antiviral effect, the change in cytotoxicity of HepG 2.2.15 cells was investigated by using optical microscopic technique or biochemical detection method (e.g., Alamar Blue staining or Trypan Blue staining).
Determination of Cytotoxicity
The substance-induced change in cytotoxicity in HepG 2.2.15 cells or in inhibition of the cells could be determined by using, e.g., optical microscopic technique, and expressed by the change of cell morphology. Such substance-induced changes, e.g., cell lysis, cavity formation or change in cell morphology, in HepG 2.2.15 cells were apparent as compared to the untreated cells.
Taking the observed pathological change of cells as index, the pathological change of cells was observed under microscope after 8 days, a complete destroy being indicated as 4; 75% being indicated as 3; 50% being indicated as 2; 25% being indicated as 1; and no pathological change being indicated as 0. The average extents of pathological change of cells and the inhibition percentages at various concentrations were calculated. According to Reed&Muench method, a half toxic concentration (TC50) and a maximum non-toxic concentration (TC0) were calculated.
TC50 refers to the concentration of the compound of the present invention when 50% of cells have a similar morphology to the corresponding cells as a control.

The test system of data set [2] is HBV DNA. Kind of data set: Antiviral activity: inhibition of HBV DNA in supernatant of HepG 2.2.15 cells (dot blot hybridization). The format is cell-based. Conditions: Hepatitis B virus, HepG2.2.15, 192 h, 8 days incubation, HB-specific DNA in supernatant, read-out: IC50 (inhibitory effect on HBV DNA). As to the method: The antiviral effect of the compound of the present invention is determined according to the methods described by Sells, et al (M. A. Sells, M. L. Chen, G. Proc. Natl. Acad. Sci. 1987, 84, 1005-1009) and Korba, et al (B. E. Korba, J. L. Gerin Antiviral Research 1992, 19, 55-70).
as §1, §2, §3, §4
Thereafter, the supernatant was collected, and sucked in vacuum to a 96-cell dot blot chamber covered by nylon film (used in accordance with the instructions for use provided by the manufacturer).
Determination of Antiviral Activity
After the supernatant was transferred onto the nylon film of the dot blot device (see the contents hereinabove), the supernatant of HepG 2.2.15 cells was denaturated (1.5 M NaCl/0.5 M NaOH), neutralized (3 M NaCl/0.5 M Tris. HCl, pH 7.5) and washed (2×SSC). Then, the filter film was kept at 120° C. for 2-4 hours, whereby DNA was baked on the filter film.
Usually, viral DNA of HepG 2.2.15 cells treated on the nylon film was detected by using a non-radioactive digoxigenin labeled HB-specific DNA probe. Wherein, each time the probe was labeled with digoxigenin, purified and hybridized according to the directions for use given by the manufacturer.
Briefly, pre-hybridization and hybridization were conducted with 5×SSC, 1× blocking agent, 0.1% N-lauroyl sarcosine, 0.02% SDS and 100 μg sperm DNA of black carp. After pre-hybridization at 60° C. for 30 min, a specific hybridization (at 60° C. for 14 hr) was conducted with 20-40 ng/ml digoxigenin labeled denaturalized HBV specific DNA. Then, the film was washed, followed by HBV DNA detection with digoxigenin antibody.
The immunology detection of digoxigenin labeled DNA was conducted according to the directions for use given by the manufacturer.
Briefly speaking, the film was washed and pre-hybridized with a blocking agent (in accordance with the directions for use given by the manufacturer), and then hybridized with an anti-DIG antibody that had been previously coupled onto an alkaline phosphatase for 30 min. After washing, an alkaline phosphatase substrate CSPD was added, and cultured together with the filter for 5 min, and then wrapped in a plastic film, followed by further culturing at 37° C. for 15 min. The filter was exposed to X-ray, and the chemical luminous signal (culturing for 10 min to 2 hr according to the signal strength) of HB-specific DNA on the film was detected, whereby a half inhibitory concentration (IC50) was calculated.
The half inhibitory concentration (IC50) refers to the concentration of the compound of the present invention which reduces the HB-specific band by 50% as compared with the untreated sample.

Take `COC(=O)C1=C(C)NC(c2c(F)cc(F)cc2F)=NC1c1ccc(F)cc1Cl` (stereo not drawn) [Example 59, methyl 2-(2,4,6-trifluorophenyl)-4-(2-chloro-4-fluorophenyl)-6-methyl-1,4-dihydro-pyrimidin-5-carboxylate]: the melting point was 112 to 114 °C. The TD50 in data set [1] is greater than 30.30 µM. Further, in data set [2], the pIC50 was 5.47.
